Experimental findings from US8680339B2, “Herbicides” (Syngenta Limited, priority 2009, dated 2014) are described below.

Holding throughout (format): in vivo
Assay [1] has as its system Avena fatua (AVEFA). As to the kind of experiment: Pre-emergence herbicidal activity, glasshouse pot test. To be noted: Avena fatua, 312 h, rate 250 g/ha, evaluated after 13 days, 100=total damage to plant, 0=no damage to plant. On the procedure: (§1) Seeds of a variety of test species were sown in standard soil in pots. After cultivation for one day (pre-emergence) or after 8 days cultivation (post-emergence) under controlled conditions in a glasshouse (at 24/16° C., day/night; 14 hours light; 65% humidity), the plants were sprayed with an aqueous spray solution derived from the formulation of the technical active ingredient in acetone/water (50:50) solution containing 0.5% Tween 20 (polyoxyethelyene sorbitan monolaurate, CAS RN 9005-64-5). The test plants were then grown in a glasshouse under controlled conditions in a glasshouse (at 24/16° C., day/night; 14 hours light; 65% humidity) and watered twice daily. After 13 days for pre and post-emergence, the test was evaluated (100=total damage to plant; 0=no damage to plant). Test Plants: Lolium perenne (LOLPE), Alopecurus myosuroides (ALOMY), Echinochloa crus-galli (ECHCG), and Avena fatua (AVEFA). Pre-Emergence Activity

Assay [2] has as its system Alopecurus myosuroides (ALOMY). The assay is described as above. The following applies: Alopecurus myosuroides, 312 h, rate 250 g/ha, evaluated after 13 days, 100=total damage to plant, 0=no damage to plant. The method, then:
as §1

Assay [3] deals with Echinochloa crus-galli (ECHCG). The description is as above. To be noted: Echinochloa crus-galli, 312 h, rate 250 g/ha, evaluated after 13 days, 100=total damage to plant, 0=no damage to plant. The method, then:
as §1

Assay [4] has as its system Lolium perenne (LOLPE). Described as above. To be noted: Lolium perenne, 312 h, rate 250 g/ha, evaluated after 13 days, 100=total damage to plant, 0=no damage to plant. The method, then: as §1
The test system of assay [5] is Avena fatua (AVEFA). As to the kind of experiment: Post-emergence herbicidal activity, glasshouse pot test. To be noted: Avena fatua, 312 h, rate 250 g/ha, evaluated after 13 days, 100=total damage to plant, 0=no damage to plant. On the procedure: as §1, with “Post-Emergence” for “Pre-Emergence”
For assay [6], the system named is Alopecurus myosuroides (ALOMY). The description is as above. The following applies: Alopecurus myosuroides, 312 h, rate 250 g/ha, evaluated after 13 days, 100=total damage to plant, 0=no damage to plant. On the procedure:
as §1, with “Post-Emergence” for “Pre-Emergence”

The subject of assay [7] is Echinochloa crus-galli (ECHCG). Described as above. The following applies: Echinochloa crus-galli, 312 h, rate 250 g/ha, evaluated after 13 days, 100=total damage to plant, 0=no damage to plant. The method, then: as §1, with “Post-Emergence” for “Pre-Emergence”
Assay [8] concerns Lolium perenne (LOLPE). The description is as above. To be noted: Lolium perenne, 312 h, rate 250 g/ha, evaluated after 13 days, 100=total damage to plant, 0=no damage to plant. On the procedure:
as §1, with “Post-Emergence” for “Pre-Emergence”

By pest or weed control is commonly meant the degree to which the test organism was suppressed or injured, in per cent. Higher therefore signals a strong effect. Take `Cc1cc(Oc2ccc(F)cc2)cc(C)c1C1=C(O)[C@H]2[C@@H](C1=O)[C@@H]1CC[C@H]2O1` [Compound A-15]: the pest or weed control at 250 g/ha in the assay with Avena fatua (AVEFA) [1] amounted to 70%; in assay [2], 60%; in assay [3], 70%; with Lolium perenne (LOLPE) [4], 90%; in the assay with Avena fatua (AVEFA) [5], 90%; in assay [6] it was 90%. Further, the pest or weed control at 250 g/ha stood at 100% in assay [7] and 90% in the assay on Lolium perenne (LOLPE) [8].
Turning to `Cc1cc(Oc2ccc(Br)cc2F)cc(C)c1C1=C(O)[C@H]2[C@@H](C1=O)[C@@H]1CC[C@H]2O1` [Compound A-3, meso-(1R,2S,6R,7S)-4-(4-[4-bromo-2-fluorophenoxy]-2,6-dimethylphenyl)-10-oxatricyclo[5.2.1.0^2,6]decane-3,5-dione], the pest or weed control at 250 g/ha in the assay on Avena fatua (AVEFA) [1] is 30%; in assay [2], 80%; in assay [3] it was 90%; with Lolium perenne (LOLPE) [4], 80%; in the assay on Avena fatua (AVEFA) [5], 90%; in assay [6], 100%. Further, the pest or weed control at 250 g/ha was determined as 100% in assay [7] and 90% in the assay with Lolium perenne (LOLPE) [8].
Regarding `CCc1cc(Oc2ccc(Cl)cc2)ccc1C1=C(O)[C@H]2[C@@H](C1=O)[C@@H]1CC[C@H]2O1` [Compound A-2], the pest or weed control at 250 g/ha in the assay with Avena fatua (AVEFA) [1] came to 0%; in assay [2], 30%; in assay [3], 30%; in the assay on Lolium perenne (LOLPE) [4] it was 60%; with Avena fatua (AVEFA) [5] it was 90%; in assay [6], 90%. Besides, the figures for the pest or weed control at 250 g/ha (in assay [7]; with Lolium perenne (LOLPE) [8]) were 100% and 80%, respectively.
For the compound `Cc1cc(Oc2ccc(Cl)cc2)cc(C)c1C1=C(O)CC(CC2CCOCC2)C1=O` (centres unmarked) [Compound A-34], the pest or weed control at 250 g/ha in the assay with Avena fatua (AVEFA) [1] was 30%; in assay [2], 80%; in assay [3], 70%; with Lolium perenne (LOLPE) [4], 70%; in the assay with Avena fatua (AVEFA) [5], 60%; in assay [6], 80%. Moreover, the pest or weed control at 250 g/ha in assay [7] was 80%; with Lolium perenne (LOLPE) [8] it was 70%.
